# Tested on: Energy system protein genes
# Assay: DNA chip mRNA expression in yeast, energy system protein genes (Table 4)
# Assay type: cell-based, Saccharomyces cerevisiae S288C
# In short: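 Measured as treated-to-untreated fluorescence ratio on a full-genome yeast DNA chip. Cells (S288C, YPD, 25° C.) were exposed in log phase for two hours to one chemical, dosed to curb growth without killing.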
smiles,measurement,setting,value
"O=[N+]([O-])c1cc[n+]([O-])c2ccccc12 [(5), 4-nitroquinolin-N-oxide]",The level of expressed mRNA in the presence of chemical substance/The level of expressed mRNA in the absence of chemical substance,yeast gene YAL060W,1.2
same,The level of expressed mRNA in the presence of chemical substance/The level of expressed mRNA in the absence of chemical substance,"yeast gene YBL058W, cells incubated two hours with the chemical substance",1.6
same,The level of expressed mRNA in the presence of chemical substance/The level of expressed mRNA in the absence of chemical substance,"yeast gene YBL099W, cells incubated two hours with the chemical substance",1.0
same,The level of expressed mRNA in the presence of chemical substance/The level of expressed mRNA in the absence of chemical substance,"yeast gene YBR001C, cells incubated two hours with the chemical substance",0.9
same,The level of expressed mRNA in the presence of chemical substance/The level of expressed mRNA in the absence of chemical substance,"yeast gene YBR185C, cells incubated two hours with the chemical substance",0.8
same,The level of expressed mRNA in the presence of chemical substance/The level of expressed mRNA in the absence of chemical substance,"yeast gene YBR221C, cells incubated two hours with the chemical substance",1.3
same,The level of expressed mRNA in the presence of chemical substance/The level of expressed mRNA in the absence of chemical substance,yeast gene YCL040W,0.5
same,The level of expressed mRNA in the presence of chemical substance/The level of expressed mRNA in the absence of chemical substance,yeast gene YCR012W,1.1
same,The level of expressed mRNA in the presence of chemical substance/The level of expressed mRNA in the absence of chemical substance,"yeast gene YCR046C, cells incubated two hours with the chemical substance",1.0
same,The level of expressed mRNA in the presence of chemical substance/The level of expressed mRNA in the absence of chemical substance,"yeast gene YCR105W, cells incubated two hours with the chemical substance",0.9
same,The level of expressed mRNA in the presence of chemical substance/The level of expressed mRNA in the absence of chemical substance,yeast gene YDL021W,1.7
same,The level of expressed mRNA in the presence of chemical substance/The level of expressed mRNA in the absence of chemical substance,"yeast gene YDL067C, cells incubated two hours with the chemical substance",2.0
same,The level of expressed mRNA in the presence of chemical substance/The level of expressed mRNA in the absence of chemical substance,"yeast gene YDL078C, cells incubated two hours with the chemical substance",1.3
same,The level of expressed mRNA in the presence of chemical substance/The level of expressed mRNA in the absence of chemical substance,"yeast gene YDL107W, cells incubated two hours with the chemical substance",1.0
same,The level of expressed mRNA in the presence of chemical substance/The level of expressed mRNA in the absence of chemical substance,yeast gene YDL174C,0.5
same,The level of expressed mRNA in the presence of chemical substance/The level of expressed mRNA in the absence of chemical substance,"yeast gene YDL181W, cells incubated two hours with the chemical substance",1.7
same,The level of expressed mRNA in the presence of chemical substance/The level of expressed mRNA in the absence of chemical substance,yeast gene YDR001C,1.1
same,The level of expressed mRNA in the presence of chemical substance/The level of expressed mRNA in the absence of chemical substance,"yeast gene YDR050C, cells incubated two hours with the chemical substance",0.9
same,The level of expressed mRNA in the presence of chemical substance/The level of expressed mRNA in the absence of chemical substance,"yeast gene YDR079W, cells incubated two hours with the chemical substance",1.2
same,The level of expressed mRNA in the presence of chemical substance/The level of expressed mRNA in the absence of chemical substance,"yeast gene YDR178W, cells incubated two hours with the chemical substance",0.9
same,The level of expressed mRNA in the presence of chemical substance/The level of expressed mRNA in the absence of chemical substance,yeast gene YDR231C,1.1
same,The level of expressed mRNA in the presence of chemical substance/The level of expressed mRNA in the absence of chemical substance,"yeast gene YDR298C, cells incubated two hours with the chemical substance",1.3
same,The level of expressed mRNA in the presence of chemical substance/The level of expressed mRNA in the absence of chemical substance,"yeast gene YDR377W, cells incubated two hours with the chemical substance",1.9
same,The level of expressed mRNA in the presence of chemical substance/The level of expressed mRNA in the absence of chemical substance,"yeast gene YDR529C, cells incubated two hours with the chemical substance",1.2
same,The level of expressed mRNA in the presence of chemical substance/The level of expressed mRNA in the absence of chemical substance,"yeast gene YEL024W, cells incubated two hours with the chemical substance",1.3
same,The level of expressed mRNA in the presence of chemical substance/The level of expressed mRNA in the absence of chemical substance,"yeast gene YEL039C, cells incubated two hours with the chemical substance",0.9
same,The level of expressed mRNA in the presence of chemical substance/The level of expressed mRNA in the absence of chemical substance,yeast gene YER178W,0.7
same,The level of expressed mRNA in the presence of chemical substance/The level of expressed mRNA in the absence of chemical substance,yeast gene YFL057C,0.9
same,The level of expressed mRNA in the presence of chemical substance/The level of expressed mRNA in the absence of chemical substance,yeast gene YFR053C,0.9
same,The level of expressed mRNA in the presence of chemical substance/The level of expressed mRNA in the absence of chemical substance,"yeast gene YGL018C, cells incubated two hours with the chemical substance",1.1
same,The level of expressed mRNA in the presence of chemical substance/The level of expressed mRNA in the absence of chemical substance,yeast gene YGL062W,0.9
same,The level of expressed mRNA in the presence of chemical substance/The level of expressed mRNA in the absence of chemical substance,"yeast gene YGL187C, cells incubated two hours with the chemical substance",1.3
same,The level of expressed mRNA in the presence of chemical substance/The level of expressed mRNA in the absence of chemical substance,"yeast gene YGL191W, cells incubated two hours with the chemical substance",0.9
same,The level of expressed mRNA in the presence of chemical substance/The level of expressed mRNA in the absence of chemical substance,"yeast gene YGL205W, cells incubated two hours with the chemical substance",1.1
same,The level of expressed mRNA in the presence of chemical substance/The level of expressed mRNA in the absence of chemical substance,"yeast gene YGL256W, cells incubated two hours with the chemical substance",0.7
same,The level of expressed mRNA in the presence of chemical substance/The level of expressed mRNA in the absence of chemical substance,yeast gene YGR008C,0.9
same,The level of expressed mRNA in the presence of chemical substance/The level of expressed mRNA in the absence of chemical substance,yeast gene YGR043C,0.9
same,The level of expressed mRNA in the presence of chemical substance/The level of expressed mRNA in the absence of chemical substance,"yeast gene YGR062C, cells incubated two hours with the chemical substance, 25° C., YPD medium",0.7
same,The level of expressed mRNA in the presence of chemical substance/The level of expressed mRNA in the absence of chemical substance,"yeast gene YGR087C, cells incubated two hours with the chemical substance",1.0
same,The level of expressed mRNA in the presence of chemical substance/The level of expressed mRNA in the absence of chemical substance,"yeast gene YGR174C, cells incubated two hours with the chemical substance",1.0
same,The level of expressed mRNA in the presence of chemical substance/The level of expressed mRNA in the absence of chemical substance,yeast gene YGR192C,1.1
same,The level of expressed mRNA in the presence of chemical substance/The level of expressed mRNA in the absence of chemical substance,yeast gene YGR244C,0.8
same,The level of expressed mRNA in the presence of chemical substance/The level of expressed mRNA in the absence of chemical substance,yeast gene YGR254W,1.2
same,The level of expressed mRNA in the presence of chemical substance/The level of expressed mRNA in the absence of chemical substance,yeast gene YHR179W,1.2
same,The level of expressed mRNA in the presence of chemical substance/The level of expressed mRNA in the absence of chemical substance,yeast gene YIL160C,1.0
same,The level of expressed mRNA in the presence of chemical substance/The level of expressed mRNA in the absence of chemical substance,"yeast gene YIR031C, cells incubated two hours with the chemical substance",1.6
same,The level of expressed mRNA in the presence of chemical substance/The level of expressed mRNA in the absence of chemical substance,yeast gene YJL052W,0.7
same,The level of expressed mRNA in the presence of chemical substance/The level of expressed mRNA in the absence of chemical substance,"yeast gene YJL121C, cells incubated two hours with the chemical substance",1.0
same,The level of expressed mRNA in the presence of chemical substance/The level of expressed mRNA in the absence of chemical substance,"yeast gene YJL166W, cells incubated two hours with the chemical substance",1.6
same,The level of expressed mRNA in the presence of chemical substance/The level of expressed mRNA in the absence of chemical substance,"yeast gene YJL216C, cells incubated two hours with the chemical substance",0.8
